Results as given in patent US8394969B2, “Cyclic benzimidazole derivatives useful as anti-diabetic agents” (Merck Sharp & Dohme Corp., priority 2008, dated 2013).
Structures can show the parent of a compound that is named as a salt.

Target: recombinant human AMPK complex 1 (containing α1β1γ1) (Homo sapiens, UniProt Q13131+Q9Y478)
Experiment: […] (in vitro AMPK activation assay)
Type: biochemical
Conditions: recombinant human AMPK complex 1 (α1β1γ1); basal activity subtracted; read-out: % Maximum AMP Activation of human AMPK Complex 1

recombinant human AMPK complex 1 (containing α1β1γ1), sequence (Q13131 whole entry): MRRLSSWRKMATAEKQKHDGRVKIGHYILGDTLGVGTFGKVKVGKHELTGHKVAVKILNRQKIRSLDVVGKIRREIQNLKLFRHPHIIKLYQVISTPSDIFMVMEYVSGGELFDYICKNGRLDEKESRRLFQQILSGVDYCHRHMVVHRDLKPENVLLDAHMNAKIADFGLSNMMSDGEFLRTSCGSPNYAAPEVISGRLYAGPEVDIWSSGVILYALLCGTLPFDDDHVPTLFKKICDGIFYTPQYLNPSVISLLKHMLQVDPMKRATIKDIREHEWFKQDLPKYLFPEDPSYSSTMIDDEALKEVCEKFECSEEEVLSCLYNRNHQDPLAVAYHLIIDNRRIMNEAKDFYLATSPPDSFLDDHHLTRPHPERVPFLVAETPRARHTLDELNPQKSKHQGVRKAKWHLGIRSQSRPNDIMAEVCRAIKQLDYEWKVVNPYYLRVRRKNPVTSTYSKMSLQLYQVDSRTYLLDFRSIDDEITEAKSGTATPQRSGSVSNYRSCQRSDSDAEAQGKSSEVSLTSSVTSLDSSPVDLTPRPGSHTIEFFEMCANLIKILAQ
recombinant human AMPK complex 1 (containing α1β1γ1), sequence (Q9Y478 whole entry): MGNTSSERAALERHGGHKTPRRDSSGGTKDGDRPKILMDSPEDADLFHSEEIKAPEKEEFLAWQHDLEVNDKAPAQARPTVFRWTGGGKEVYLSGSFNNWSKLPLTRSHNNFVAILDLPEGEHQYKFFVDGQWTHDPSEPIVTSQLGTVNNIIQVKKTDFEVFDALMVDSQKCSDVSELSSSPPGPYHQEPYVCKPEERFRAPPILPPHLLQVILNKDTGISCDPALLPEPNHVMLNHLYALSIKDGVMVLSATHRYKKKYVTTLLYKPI
recombinant human AMPK complex 1 (containing α1β1γ1), sequence (P54619 whole entry partner): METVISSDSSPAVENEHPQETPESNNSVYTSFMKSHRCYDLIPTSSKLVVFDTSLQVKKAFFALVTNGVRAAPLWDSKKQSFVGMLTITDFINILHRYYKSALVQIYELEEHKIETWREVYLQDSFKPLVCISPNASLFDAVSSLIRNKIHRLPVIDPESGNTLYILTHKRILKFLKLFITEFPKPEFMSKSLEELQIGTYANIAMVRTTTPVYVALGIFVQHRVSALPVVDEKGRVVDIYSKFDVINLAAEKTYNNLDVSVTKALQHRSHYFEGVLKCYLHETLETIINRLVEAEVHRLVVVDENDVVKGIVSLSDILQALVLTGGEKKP

`Cc1ccc(Oc2nc3cc(C#Cc4ccc(O)cc4)c(Cl)cc3[nH]2)cc1C(=O)O` [Example 116, 5-[6-Chloro-5-(4-hydroxy-phenylethynyl)-1H-benzoimidazol-2-yloxy]-2-methyl-benzoic acid] was tested. Which Emax did it give?
Its Emax is > 80%.

For `Cc1ccc(Oc2nc3cc(-c4ccc5c(c4)cc(-c4ccccc4)n5C)c(Cl)cc3[nH]2)cc1C(=O)O` [Example 277, 5-[6-Chloro-5-(1-methyl-2-phenyl-1H-indol-5-yl)-1H-benzoimidazol-2-yloxy]-2-methyl-benzoic acid], which Emax is on record?
The Emax was > 80%.

Which Emax does the source give for `O=C(O)c1cc(COc2nc3cc(-c4ccc(-c5ccccc5)cc4)c(Cl)cc3[nH]2)cc(C(=O)O)c1` [Example 227, 5-(5-Biphenyl-4-yl-6-chloro-1H-benzoimidazol-2-yloxymethyl)-isophthalic acid] here?
Its Emax is > 80%.

For `Cc1ccc(Oc2nc3cc(-c4ccc(-c5c(C)n[nH]c5C)cc4)c(Cl)cc3[nH]2)cc1C(=O)O` [Example 203, 5-({6-chloro-5-[4-(3,5-dimethyl-1H-pyrazol-4-yl)phenyl]-1H-benzimidazol-2-yl}oxy)-2-methylbenzoic acid], which Emax is on record?
Its Emax is > 80%.

How did the Emax turn out when `O=C(O)c1cc(Oc2nc3cc(-c4ccc(CO)cc4)c(Cl)cc3[nH]2)ccc1Cl` [Example 60, 2-Chloro-5-[6-chloro-5-(4-hydroxymethyl-phenyl)-1H-benzoimidazol-2-yloxy]-benzoic acid] was run?
The Emax was > 80%.

Which Emax does the source give for `Cc1ccc(Oc2nc3cc(-c4ccc(N5CCNCC5)nc4)c(Cl)cc3[nH]2)cc1C(=O)O` [Example 174, 5-[6-Chloro-5-(6-piperazin-1-yl-pyridin-3-yl)-1H-benzoimidazol-2-yloxy]-2-methyl-benzoic acid] here?
The Emax was > 80%.

`Cc1ccc(Oc2nc3cc(-c4cccc(CO)n4)c(Cl)cc3[nH]2)cc1C(=O)O` [Example 332, 2-(3-carboxy-4-methylphenoxy)-6-chloro-5-[6-(hydroxymethyl)pyridin-2-yl]-1H-3,1-benzimidazol-3-ium formate] was tested. Which Emax did it give?
Its Emax is > 80%.

With `O=C(O)c1cc(Oc2nc3cc(C#Cc4ccccc4)c(Cl)cc3[nH]2)cc(C(=O)O)c1` [Example 48, 5-(6-Chloro-5-phenylethynyl-1H-benzoimidazol-2-yloxy)-isophthalic acid] as the compound, how does the Emax read?
Its Emax is > 80%.

For `COC(=O)c1cc(Oc2nc3cc(C#Cc4cccc(OC)c4)c(Cl)cc3[nH]2)ccc1C` [Example 109, 5-[6-Chloro-5-(3-methoxy-phenylethynyl)-1H-benzoimidazol-2-yloxy]-2-methyl-benzoic acid methyl ester], which Emax is on record?
The Emax was > 80%.

For `O=C(O)c1cc(O)cc(Oc2nc3cc(-c4ccc(-c5ccccc5)cc4)c(Cl)cc3[nH]2)c1` [Example 35, 3-(5-Biphenyl-4-yl-6-chloro-1H-benzoimidazol-2-yloxy)-5-hydroxy-benzoic acid], which Emax is on record?
Its Emax is > 80%.

`O=C(O)Cc1cc(Oc2nc3cc(-c4ccc(-c5ccccc5)cc4)c(Cl)cc3[nH]2)ccc1O` [Example 17, [5-(5-Biphenyl-4-yl-6-chloro-1H-benzoimidazol-2-yloxy)-2-hydroxy-phenyl]-acetic acid] was tested. Which Emax did it give?
The Emax was > 80%.

Which Emax does the source give for `COC(=O)c1c(C)cc(Oc2nc3cc(-c4ccc(-c5ccccc5)cc4)c(Cl)cc3[nH]2)cc1C(=O)O` [Example 12, 5-(5-Biphenyl-4-yl-6-chloro-1H-benzoimidazol-2-yloxy)-3-methyl-phthalic acid 2-methyl ester] here?
Its Emax is > 80%.

`Cc1ccc(C(=O)O)cc1Oc1nc2cc(-c3ccc4c(ccn4C)c3)c(Cl)cc2[nH]1` [Example 216, 3-[6-Chloro-5-(1-methyl-1H-indol-5-yl)-1H-benzoimidazol-2-yloxy]-4-methyl-benzoic acid] was tested. Which Emax did it give?
The Emax was > 80%.

`Cc1ccc(Oc2nc3cc(-c4ccc(/C(N)=N/O)cc4)c(Cl)cc3[nH]2)cc1C(=O)O` [Example 177, 5-{6-Chloro-5-[4-(N-hydroxycarbamimidoyl)-phenyl]-1H-benzoimidazol-2-yloxy}-2-methyl-benzoic acid] was tested. Which Emax did it give?
The Emax was > 80%.

With `N#Cc1ccc(Oc2nc3cc(-c4ccc(-c5ccccc5)cc4)c(Cl)cc3[nH]2)cc1C#N` [Example 101, 4-(5-Biphenyl-4-yl-6-chloro-1H-benzoimidazol-2-yloxy)-phthalonitrile] as the compound, how does the Emax read?
Its Emax is > 80%.

`Cc1ccc(Oc2nc3cc(C#Cc4ccc(CCO)cc4)c(Cl)cc3[nH]2)cc1C(=O)O` [Example 69, 5-{6-chloro-5-[4-(2-hydroxy-ethyl)-phenylethynyl]-1H-benzoimidazol-2-yloxy}-2-methyl-benzoic acid] was tested. Which Emax did it give?
The Emax was > 80%.

For `Cn1ccc2cc(-c3cc4nc(Oc5ccc(Cl)c(C(=O)O)c5)[nH]c4cc3Cl)ccc21` [Example 217, 2-Chloro-5-[6-chloro-5-(1-methyl-1H-indol-5-yl)-1H-benzoimidazol-2-yloxy]-benzoic acid], which Emax is on record?
The Emax was > 80%.

How did the Emax turn out when `COc1ccc(C#Cc2cc3nc(Oc4ccc(C)c(C(=O)O)c4)[nH]c3cc2Cl)cn1` [Example 129, 5-[6-Chloro-5-(6-methoxy-pyridin-3-ylethynyl)-1H-benzoimidazol-2-yloxy]-2-methyl-benzoic acid] was run?
The Emax was > 80%.

For `COc1cccc(-c2cc3nc(Oc4ccc(C)c(C(=O)O)c4)[nH]c3cc2Cl)n1` [Example 334, 2-(3-carboxy-4-methylphenoxy)-6-chloro-5-(6-methoxypyridin-2-yl)-1H-3,1-benzimidazol-3-ium formate], which Emax is on record?
The Emax was > 80%.

How did the Emax turn out when `Cc1ccc(C#Cc2cc3nc(Oc4ccc(C)c(C(=O)O)c4)[nH]c3cc2Cl)cn1` [Example 132, 5-[6-Chloro-5-(6-methyl-pyridin-3-ylethynyl)-1H-benzoimidazol-2-yloxy]-2-methyl-benzoic acid] was run?
The Emax was > 80%.

Which Emax does the source give for `Cc1ccc(Oc2nc3cc(C#Cc4ccc(-c5cc[nH]n5)cc4)c(Cl)cc3[nH]2)cc1C(=O)O` [Example 74, 5-{6-Chloro-5-[4-(1H-pyrazol-3-yl)-phenylethynyl]-1H-benzoimidazol-2-yloxy}-2-methyl-benzoic acid] here?
Its Emax is > 80%.

`O=C(O)C(O)c1cccc(Oc2nc3cc(-c4ccc(-c5ccccc5)cc4)c(Cl)cc3[nH]2)c1` (stereo not drawn) [Example 19] was tested. Which Emax did it give?
The Emax was > 80%.

How did the Emax turn out when `Cc1ccc(Oc2nc3cc(-c4cnc5c(c4)OCCN5C)c(Cl)cc3[nH]2)cc1C(=O)O` [Example 143, 2-(3-carboxy-4-methylphenoxy)-6-chloro-5-(4-methyl-3,4-dihydro-2H-pyrido[3,2-b] [1,4]oxazin-7-yl)-1H-3,1-benzimidazol-3-ium trifluoroacetate] was run?
The Emax was > 80%.

Same assay, conditions: recombinant human AMPK complex 1 (α1β1γ1); read-out: EC50

Which EC50 does the source give for `Cc1ccc(Oc2nc3cc(-c4ccc5c(c4)OCCN5C)c(Cl)cc3[nH]2)cc1C(=O)O` [Example 151, 2-(3-carboxy-4-methylphenoxy)-6-chloro-5-(4-methyl-3,4-dihydro-2H-1,4-benzoxazin-7-yl)-1H-3,1-benzimidazol-3-ium chloride] here?
The EC50 was 22 nM.

How did the EC50 turn out when `Cc1ccc(Oc2nc3cc(-c4cc5ccn(CCO)c5cc4F)c(Cl)cc3[nH]2)cc1C(=O)O` [Example 325, 5-({6-chloro-5-[6-fluoro-1-(2-hydroxyethyl)-1H-indol-5-yl]-1H-benzimidazol-2-yl}oxy)-2-methylbenzoic acid] was run?
Its EC50 is 5 nM.

`Cc1ccc(Oc2nc3cc(-c4ccc(C5CC5)cc4)c(Cl)cc3[nH]2)cc1C(=O)O` [Example 230, 5-{[6-chloro-5-(4-cyclopropylphenyl)-1H-benzimidazol-2-yl]oxy}-2-methylbenzoic acid] was tested. Which EC50 did it give?
Its EC50 is 9 nM.

For `Cc1ccc(Oc2nc3cc(-c4ccc(-c5ccc(=O)n(C)c5)cc4)c(Cl)cc3[nH]2)cc1C(=O)O` [Example 68, 5-({6-chloro-5-[4-(1-methyl-6-oxo-1,6-dihydropyridin-3-yl)phenyl]-1H-benzimidazol-2-yl}oxy)-2-methylbenzoic acid], which EC50 is on record?
Its EC50 is 7 nM.
